Test results: patent publication US11613531B2, “Inhibitors of RHO associated coiled-coil containing protein kinase” (Kadmon Corporation, LLC, priority 2017, dated 2023)
Several values for one entry are separate records, joined by “and”; a condition that tells them apart may be missing. Identical values can stand only once. Like-named read-outs stand apart in the source and are kept apart here.

Legend:
[1] = target: Recombinant ROCK2 (amino acids 1-552) (Homo sapiens (Human), UniProt O75116); assay: Z′-Lyte kinase assay, ROCK2; assay type: biochemical; conditions: for inhibition at 3 µM: 3 μM compound; for inhibition at 3 µM / inhibition at 0.5 µM: read-out: ROCK2 % inh. @ [conc]; for inhibition at 0.5 µM: 0.5 μM compound
Sequence of Recombinant ROCK2 (amino acids 1-552) (O75116 1-552): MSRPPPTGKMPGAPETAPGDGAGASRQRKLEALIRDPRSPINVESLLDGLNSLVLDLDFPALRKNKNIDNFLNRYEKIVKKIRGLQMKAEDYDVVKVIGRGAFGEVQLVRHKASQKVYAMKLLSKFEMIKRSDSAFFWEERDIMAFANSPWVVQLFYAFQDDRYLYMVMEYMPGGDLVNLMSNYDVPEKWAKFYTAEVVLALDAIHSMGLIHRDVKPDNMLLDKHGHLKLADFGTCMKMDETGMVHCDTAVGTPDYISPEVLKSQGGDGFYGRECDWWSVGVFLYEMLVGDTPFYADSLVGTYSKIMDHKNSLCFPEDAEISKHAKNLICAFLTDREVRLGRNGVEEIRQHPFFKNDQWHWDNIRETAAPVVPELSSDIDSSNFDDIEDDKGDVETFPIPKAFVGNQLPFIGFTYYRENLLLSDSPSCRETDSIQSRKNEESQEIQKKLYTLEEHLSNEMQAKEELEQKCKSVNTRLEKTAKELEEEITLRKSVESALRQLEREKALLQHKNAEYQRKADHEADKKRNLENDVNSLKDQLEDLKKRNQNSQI
Outline: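 IC50s derive from nonlinear curve fits over a 9-point, 2-fold dilution series, with single-point inhibition at 1 μM expressed relative to DMSO. Activity of truncated human ROCK1 (residues 1-535) and ROCK2 (residues 1-552) measured with the Z′-Lyte kinase format.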

[2] = tested on: ppMlc (T18/S19) levels in A7R5 cells; assay: A7R5 in-cell ELISA (pMLC); assay type: cell-based, Rat; conditions: for inhibition at 10 µM / IC50 / inhibition at 1 µM: Rattus norvegicus, A7R5, A7R5 cells; for inhibition at 10 µM / inhibition at 1 µM: read-out: pMLC % inh A7R5 @ [conc]; for inhibition at 1 µM: 1 μM compound
Outline: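 Cellular IC50 came from a nonlinear regression fit of ppMlc (T18/S19) signal, read by colorimetric in-cell ELISA on fixed cells. Rat A7R5 aortic smooth muscle cells had been exposed for 90 min to compounds in 9-point 2-fold serial dilution, 24 h after seeding.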

[3] = target: Recombinant ROCK1 (amino acids 1-535) (Homo sapiens (Human), UniProt Q13464); assay: Z′-Lyte kinase assay, ROCK1; assay type: biochemical; conditions: for inhibition at 3 µM: 3 μM compound; for inhibition at 3 µM / inhibition at 0.5 µM: read-out: ROCK1 % inh. @ [conc]; for inhibition at 0.5 µM: 0.5 μM compound
Sequence of Recombinant ROCK1 (amino acids 1-535) (Q13464 1-535): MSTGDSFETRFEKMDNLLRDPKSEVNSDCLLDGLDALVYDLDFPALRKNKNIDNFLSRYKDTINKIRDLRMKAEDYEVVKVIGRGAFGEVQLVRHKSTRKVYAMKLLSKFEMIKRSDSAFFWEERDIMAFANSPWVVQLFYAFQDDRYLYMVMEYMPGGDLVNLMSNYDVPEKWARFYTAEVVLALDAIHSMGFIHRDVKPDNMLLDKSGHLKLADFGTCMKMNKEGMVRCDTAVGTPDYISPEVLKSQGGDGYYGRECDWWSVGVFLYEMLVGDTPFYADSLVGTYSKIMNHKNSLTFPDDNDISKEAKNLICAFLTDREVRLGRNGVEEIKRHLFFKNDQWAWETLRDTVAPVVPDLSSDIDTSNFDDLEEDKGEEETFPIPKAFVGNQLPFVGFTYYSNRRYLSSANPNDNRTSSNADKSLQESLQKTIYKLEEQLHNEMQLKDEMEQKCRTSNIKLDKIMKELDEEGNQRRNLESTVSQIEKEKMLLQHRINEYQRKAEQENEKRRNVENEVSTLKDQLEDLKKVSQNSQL
Method: Determination of Compound's ROCK Inhibitory Activity In Vitro (Z'Lyte Assay).
Recombinant ROCK1 (amino acids 1-535) and ROCK2 (amino acids 1-552) proteins were purchased from ThermoFisher Scientific. Compound's activities were measured by Z′-lyte kinase kit (ThermoFisher Scientific) and IC50 was calculated
In vitro activities for the compounds were measured with Z′-lyte kinase kit (ThermoFisher Scientific). The percent inhibition rate was calculated by normalizing the kinase activity value obtained with 1 μM compound treatment against DMSO control value and then applied to the formula, [1-(compound/DMSO)]×100%. IC50s were calculated using the nonlinear regression curve fit function of the GraphPad Prism software with kinase activities data measured with 9 points 2-fold serial dilution of compounds treatment. In cell pMLC IC50s were calculated with data obtained from A7R5 cell experiments. A7R5 cells were treated with 9 points 2-fold serial dilution of compounds and ppMlc (T18/S19) levels were determined to calculate cellular IC50 values of the compounds using the nonlinear regression curve fit function of the GraphPad Prism software. NIH3T3 cells stably expressing ACTA2-promoter-driven-luciferase were applied to measure ROCK compounds functional IC50s in cells. Cells were plated in 96 well plates to confluence and treated with 9 points serial dilution of compounds in combination with TGFβ1 for 24 hr. Luciferase activities were measured and compound's IC50s were calculated using the nonlinear regression curve fit function of the GraphPad Prism software.

[4] = 9 points 2-fold serial dilution

SMILES | inhibition at 3 µM [1] [%] | inhibition at 10 µM ([2]; 10 μM compound) [%] | IC50 ([2]; ppMlc (T18/S19)) [nM] | inhibition at 3 µM [3] [%] | IC50 [1, 4] [µM] | IC50 [3, 4] [µM] | further results
CC1CCN(c2nccc(Nc3ccc4[nH]ncc4c3)n2)CCN1 (centres unmarked) [Example 57, N-(2-(5-methyl-1,4-diazepan-1-yl)pyrimidin-4-yl)-1H-indazol-5-amine] | 93.4 | 60.6 | 1220 | 17.4 | – | – | –
CCC1CN(c2nccc(Nc3ccc4[nH]ncc4c3)n2)CCN1 (centres unmarked) [Example 58, N-(2-(3-ethylpiperazin-1-yl)pyrimidin-4-yl)-1H-indazol-5-amine] | 98.8 | – | 1080 | 99 | 0.144 | 0.192 | –
CC(C)C1CN(c2nccc(Nc3ccc4[nH]ncc4c3)n2)CCN1 (centres unmarked) [Example 59, N-(2-(3-isopropylpiperazin-1-yl)pyrimidin-4-yl)-1H-indazol-5-amine] | 100 | – | 4780 | 100 | 0.902 | 0.671 | –
CCC1CCN(c2nccc(Nc3ccc4[nH]ncc4c3)n2)CCN1 (centres unmarked) [Example 60, N-(2-(5-ethyl-1,4-diazepan-1-yl)pyrimidin-4-yl)-1H-indazol-5-amine] | 100 | – | 3440 | 100 | 0.45 | 0.66 | –
CC(C)C1CCN(c2nccc(Nc3ccc4[nH]ncc4c3)n2)CCN1 (centres unmarked) [Example 61, N-(2-(5-isopropyl-1,4-diazepan-1-yl)pyrimidin-4-yl)-1H-indazol-5-amine] | 100 | – | 8170 | 100 | > 1 | > 1 | –
CCC1CN(c2nccc(Nc3ccc4[nH]ncc4c3)n2)CCCN1 (centres unmarked) [Example 62, N-(2-(3-ethyl-1,4-diazepan-1-yl)pyrimidin-4-yl)-1H-indazol-5-amine] | 100 | – | 1300 | 100 | 0.177 | 0.179 | –
c1ccc(C2CCN(c3nccc(Nc4ccc5[nH]ncc5c4)n3)CCN2)cc1 (centres unmarked) [Example 63, N-(2-(5-phenyl-1,4-diazepan-1-yl)pyrimidin-4-yl)-1H-indazol-5-amine] | 100 | – | 25100 | 100 | > 1 | > 1 | –
c1ccc(C2CN(c3nccc(Nc4ccc5[nH]ncc5c4)n3)CCCN2)cc1 (centres unmarked) [Example 64, N-(2-(3-phenyl-1,4-diazepan-1-yl)pyrimidin-4-yl)-1H-indazol-5-amine] | – | 63.9 | 1040 | – | 0.24 | 0.325 | –
CC(C)C1CN(c2nccc(Nc3ccc4[nH]ncc4c3)n2)CCCN1 (centres unmarked) [Example 65, N-(2-(3-isopropyl-1,4-diazepan-1-yl)pyrimidin-4-yl)-1H-indazol-5-amine] | – | 47.8 | 1980 | – | 0.353 | 0.098 | –
CCCC1CNCCN1c1nccc(Nc2ccc3[nH]ncc3c2)n1 (centres unmarked) [Example 69, N-(2-(2-propylpiperazin-1-yl)pyrimidin-4-yl)-1H-indazol-5-amine] | – | – | – | – | – | – | inhibition at 0.5 µM [1]: 52%; inhibition at 1 µM [2]: 19.3%; inhibition at 0.5 µM [3]: 67%
Clc1cnc(N2CCNCC2)nc1Nc1ccc2[nH]ncc2c1 [Example 178, N-(5-chloro-2-(piperazin-1-yl)pyrimidin-4-yl)-1H-indazol-5-amine] | – | 47.5 | 706 | – | 0.159 | 0.388 | –
CCC1CNCCN1c1ncc(Cl)c(Nc2ccc3[nH]ncc3c2)n1 (centres unmarked) [Example 187, N-(5-chloro-2-(2-ethylpiperazin-1-yl)pyrimidin-4-yl)-1H-indazol-5-amine] | – | 59.8 | 665 | – | 0.111 | 0.058 | –
CC1CN(c2ncc(Cl)c(Nc3ccc4[nH]ncc4c3)n2)CC(C)N1 (centres unmarked) [Example 189, N-(5-chloro-2-(3,5-dimethylpiperazin-1-yl)pyrimidin-4-yl)-1H-indazol-5-amine] | – | 33.4 | 637 | – | – | – | inhibition at 0.5 µM [1]: 14%; inhibition at 0.5 µM [3]: 18%
Cc1cnc(N2CCNCC(C)C2)nc1Nc1ccc2[nH]ncc2c1 (centres unmarked) [Example 196, N-(5-methyl-2-(6-methyl-1,4-diazepan-1-yl)pyrimidin-4-yl)-1H-indazol-5-amine] | – | – | – | – | – | – | inhibition at 0.5 µM [1]: 39%; inhibition at 1 µM [2]: 17.6%; inhibition at 0.5 µM [3]: 37%
c1cc(Nc2ccc3[nH]ncc3c2)nc(N2CCC3(CCNCC3)C2)n1 [Example 202, N-(2-(2,8-diazaspiro[4.5]decan-2-yl)pyrimidin-4-yl)-1H-indazol-5-amine] | 88.3 | 13.8 | – | 88.4 | – | – | –
CC1CN(c2nccc(Nc3ccc4[nH]ncc4c3)n2)CCCN1 (centres unmarked) [Example 203, N-(2-(3-methyl-1,4-diazepan-1-yl)pyrimidin-4-yl)-1H-indazol-5-amine] | 98 | 63.5 | 561 | 89.1 | 0.057 | 0.046 | –
c1cc(Nc2ccc3[nH]ncc3c2)nc(N2CC3CNCC3C2)n1 (centres unmarked) [Example 210, N-(2-(hexahydropyrrolo[3,4-c]pyrrol-2(1H)-yl)pyrimidin-4-yl)-1H-indazol-5-amine] | 0 | 73.4 | 589 | 41.9 | – | – | –
CC1CN(c2nccc(Nc3ccc4[nH]ncc4c3)n2)CCN1 (centres unmarked) [Example 225, N-(2-(3-methylpiperazin-1-yl)pyrimidin-4-yl)-1H-indazol-5-amine] | 98.3 | 78 | 532 | 80.9 | 0.098 | – | –
N[C@@H]1CCN(c2nccc(Nc3ccc4[nH]ncc4c3)n2)C1 [Example 231, (R)—N-(2-(3-aminopyrrolidin-1-yl)pyrimidin-4-yl)-1H-indazol-5-amine] | – | – | – | – | – | – | IC50 [1]: 0.276 µM; pMLC % inh A7R5 @ [conc] ([2]; A7R5 cells, 10 μM compound): 94.24, % and 63.4%; IC50 [2]: 335 nM; IC50 [3]: > 10 µM
CC1CNCCN1c1nccc(Nc2ccc3[nH]ncc3c2)n1 (centres unmarked) [Example 232, N-(2-(2-methylpiperazin-1-yl)pyrimidin-4-yl)-1H-indazol-5-amine] | 104 | 93 | 129 | 100 | 0.022 | 0.075 | –
COc1cccc(CNC2CCCN(c3nccc(Nc4ccc5[nH]ncc5c4)n3)C2)c1 (centres unmarked) [Example 233, N-(2-(3-((3-methoxybenzyl)amino)piperidin-1-yl)pyrimidin-4-yl)-1H-indazol-5-amine] | – | 95.1 | – | – | – | – | IC50 [1]: 0.217 µM; IC50 [2]: 712 nM; IC50 [3]: > 10 µM
CC1CNCCCN1c1nccc(Nc2ccc3[nH]ncc3c2)n1 (centres unmarked) [Example 238, N-(2-(2-methyl-1,4-diazepan-1-yl)pyrimidin-4-yl)-1H-indazol-5-amine] | – | 70 | 215 | – | 0.017 | 0.055 | –
CC1CCN(c2nc(Nc3ccc(-c4ccncc4)cc3)c3ccccc3n2)CCN1 (centres unmarked) [Example 239, 2-(5-methyl-1,4-diazepan-1-yl)-N-(4-(pyridin-4-yl)phenyl)quinazolin-4-amine] | 100 | – | 6350 | 100 | > 1 | > 1 | –
Cc1cc(Nc2ccc(-c3ccncc3)cc2)nc(N2CCNC(C)CC2)n1 (centres unmarked) [Example 245, 6-methyl-2-(5-methyl-1,4-diazepan-1-yl)-N-(4-(pyridin-4-yl)phenyl)pyrimidin-4-amine] | 100 | – | 8220 | 100 | > 1 | > 1 | –
Cc1cc(Nc2ccc(-c3ccncc3)cc2)nc(N2CCCNC(C)C2)n1 (centres unmarked) [Example 247, 6-methyl-2-(3-methyl-1,4-diazepan-1-yl)-N-(4-(pyridin-4-yl)phenyl)pyrimidin-4-amine] | 100 | – | 1960 | 100 | 0.407 | 0.132 | –
CCC1CN(c2nccc(Nc3ccc(-c4ccncc4)cc3)n2)CCCN1 (centres unmarked) [Example 248, 2-(3-ethyl-1,4-diazepan-1-yl)-N-(4-(pyridin-4-yl)phenyl)pyrimidin-4-amine] | 100 | – | 968 | 100 | 0.0439 | 0.036 | –
